Source: patent US8119692B2 (priority 2007, dated 2012)

The molecules below were run against Lethal factor protease (Bacillus anthracis, UniProt P15917) (assay: biochemical). Details: LF (FRET) Ki^app.
Chain of Lethal factor protease (P15917 34-809 limits assumed): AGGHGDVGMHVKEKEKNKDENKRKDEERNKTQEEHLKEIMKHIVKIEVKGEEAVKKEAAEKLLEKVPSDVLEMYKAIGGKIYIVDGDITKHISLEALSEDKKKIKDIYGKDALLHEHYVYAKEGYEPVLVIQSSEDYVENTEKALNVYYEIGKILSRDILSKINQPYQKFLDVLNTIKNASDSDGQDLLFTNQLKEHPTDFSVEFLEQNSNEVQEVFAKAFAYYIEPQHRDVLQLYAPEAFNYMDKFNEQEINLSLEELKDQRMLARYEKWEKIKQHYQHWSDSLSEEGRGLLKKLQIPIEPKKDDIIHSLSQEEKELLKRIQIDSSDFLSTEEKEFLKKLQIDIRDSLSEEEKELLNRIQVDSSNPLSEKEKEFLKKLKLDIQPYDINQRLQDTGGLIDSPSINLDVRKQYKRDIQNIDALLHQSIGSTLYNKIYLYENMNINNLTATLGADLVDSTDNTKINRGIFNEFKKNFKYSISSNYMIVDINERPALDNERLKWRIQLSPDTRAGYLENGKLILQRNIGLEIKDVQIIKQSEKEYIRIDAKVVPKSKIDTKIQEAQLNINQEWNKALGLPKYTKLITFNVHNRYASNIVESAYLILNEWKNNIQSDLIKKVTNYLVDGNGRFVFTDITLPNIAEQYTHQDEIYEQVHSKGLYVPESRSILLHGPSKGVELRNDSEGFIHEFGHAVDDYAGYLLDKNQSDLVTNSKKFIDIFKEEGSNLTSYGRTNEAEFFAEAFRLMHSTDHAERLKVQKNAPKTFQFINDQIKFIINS

**Q.** `CO[C@H](C[C@H](CCN1CCOCC1)C(=O)NO)c1ccc(F)cc1` [Compound 167829, (2S,4R)-4-(4-fluorophenyl)-N-hydroxy-4-methoxy-2-(2-morpholinoethyl)butanamide] was tested. Which Ki did it give?
**A.** 5700 nM

**Q.** With `CO[C@H](C[C@H](CCN1CCC(F)(F)CC1)C(=O)NO)c1ccc(F)cc1` [Compound 167884, (2S,4R)-2-(2-(4,4-difluoropiperidin-1-yl)ethyl)-4-(4-fluorophenyl)-N-hydroxy-4-methoxybutanamide] as the molecule, how does the Ki read?
**A.** 2200 nM

**Q.** With `CO[C@H](C[C@H](CCN1CCCC(CO)C1)C(=O)NO)c1ccc(F)cc1` (stereo partly drawn) [Compound 167885, (2S,4R)-4-(4-fluorophenyl)-N-hydroxy-2-(2-(3-(hydroxymethyl)piperidin-1-yl)ethyl)-4-methoxybutanamide] as the molecule, how does the Ki read?
**A.** 760 nM

**Q.** How did the Ki turn out when `CO[C@H](C[C@H](CCN1CCCCC1)C(=O)NO)c1ccc(F)cc1` [Compound 167889, (2S,4R)-4-(4-fluorophenyl)-N-hydroxy-4-methoxy-2-(2-(piperidin-1-yl)ethyl)butanamide] was run?
**A.** 1500 nM

**Q.** How did the Ki turn out when `CO[C@H](C[C@H](CCN(C)CCOc1ccccc1)C(=O)NO)c1ccc(F)cc1` [Compound 167890, (2S,4R)-4-(4-fluorophenyl)-N-hydroxy-4-methoxy-2-(2-(methyl(2-phenoxyethyl)amino)ethyl)butanamide] was run?
**A.** 1600 nM

**Q.** For `CO[C@H](C[C@H](CCN1CCc2ccccc2C1)C(=O)NO)c1ccc(F)cc1` [Compound 167891, (2S,4R)-2-(2-(3,4-dihydroisoquinolin-2(1H)-yl)ethyl)-4-(4-fluorophenyl)-N-hydroxy-4-methoxybutanamide], which Ki is on record?
**A.** 920 nM

**Q.** Which Ki does the source give for `CO[C@H](C[C@H](CCN1CCCCCC1)C(=O)NO)c1ccc(F)cc1` [Compound 167911, (2S,4R)-2-(2-(azepan-1-yl)ethyl)-4-(4-fluorophenyl)-N-hydroxy-4-methoxybutanamide] here?
**A.** 69500 nM

**Q.** With `CO[C@H](C[C@H](CCN1CCCCCCC1)C(=O)NO)c1ccc(F)cc1` [Compound 167912, (2S,4R)-2-(2-(azocan-1-yl)ethyl)-4-(4-fluorophenyl)-N-hydroxy-4-methoxybutanamide] as the molecule, how does the Ki read?
**A.** 284000 nM

**Q.** `CO[C@H](C[C@H](CCN(C)CCO)C(=O)NO)c1ccc(F)cc1` [Compound 167922] was tested. Which Ki did it give?
**A.** 1490 nM

**Q.** `CO[C@H](C[C@H](CCN1CCCC1)C(=O)NO)c1ccc(F)cc1` [Compound 167923, (2S,4R)-4-(4-fluorophenyl)-N-hydroxy-4-methoxy-2-(2-(pyrrolidin-1-yl)ethyl)butanamide] was tested. Which Ki did it give?
**A.** 970 nM

**Q.** How did the Ki turn out when `CO[C@H](C[C@H](CCN1CCCC(C(=O)O)C1)C(=O)NO)c1ccc(F)cc1` (stereo partly drawn) [Compound 167924, 1-((3S,5R)-5-(4-fluorophenyl)-3-(hydroxycarbamoyl)-5-methoxypentyl)piperidine-3-carboxylic acid] was run?
**A.** 9000 nM

**Q.** With `CO[C@H](C[C@H](CCN1CCC(Cc2ccccc2)CC1)C(=O)NO)c1ccc(F)cc1` [Compound 167940, (2S,4R)-2-(2-(4-benzylpiperidin-1-yl)ethyl)-4-(4-fluorophenyl)-N-hydroxy-4-methoxybutanamide] as the molecule, how does the Ki read?
**A.** 400 nM

**Q.** For `CO[C@H](C[C@H](CCN1CCN(C(=O)OC(C)(C)C)CC1)C(=O)NO)c1ccc(F)cc1` [Compound 167944, tert-butyl 4-((3S,5R)-5-(4-fluorophenyl)-3-(hydroxycarbamoyl)-5-methoxypentyl)piperazine-1-carboxylate], which Ki is on record?
**A.** 2500 nM

**Q.** How did the Ki turn out when `CO[C@H](C[C@H](CCN(C)CCc1ccccc1)C(=O)NO)c1ccc(F)cc1` [Compound 167952, (2S,4R)-4-(4-fluorophenyl)-N-hydroxy-4-methoxy-2-(2-(methyl(phenethyl)amino)ethyl)butanamide] was run?
**A.** 770 nM

**Q.** How did the Ki turn out when `CO[C@H](C[C@H](CCN(C)CCCc1ccccc1)C(=O)NO)c1ccc(F)cc1` [Compound 167953, (2S,4R)-4-(4-fluorophenyl)-N-hydroxy-4-methoxy-2-(2-(methyl(3-phenylpropyl)amino)ethyl)butanamide] was run?
**A.** 230 nM

**Q.** Which Ki does the source give for `CO[C@H](C[C@H](CCN(C)C)C(=O)NO)c1ccc(F)cc1` [Compound 167954, (2S,4R)-2-(2-(dimethylamino)ethyl)-4-(4-fluorophenyl)-N-hydroxy-4-methoxybutanamide] here?
**A.** 970 nM

**Q.** For `CO[C@H](C[C@H](CCN1CCNCC1)C(=O)NO)c1ccc(F)cc1` [Compound 167955, (2S,4R)-4-(4-fluorophenyl)-N-hydroxy-4-methoxy-2-(2-(piperazin-1-yl)ethyl)butanamide], which Ki is on record?
**A.** 830 nM

**Q.** For `CO[C@H](C[C@H](CCN1CCN(CCc2ccccc2)CC1)C(=O)NO)c1ccc(F)cc1` [Compound 167958, (2S,4R)-4-(4-fluorophenyl)-N-hydroxy-4-methoxy-2-(2-(4-phenethylpiperazin-1-yl)ethyl)butanamide], which Ki is on record?
**A.** 2400 nM

**Q.** How did the Ki turn out when `CO[C@H](C[C@H](CCN1CCN(CCCc2ccccc2)CC1)C(=O)NO)c1ccc(F)cc1` [Compound 167959, (2S,4R)-4-(4-fluorophenyl)-N-hydroxy-4-methoxy-2-(2-(4-(3-phenylpropyl)piperazin-1-yl)ethyl)butanamide] was run?
**A.** 1000 nM

**Q.** With `CO[C@H](C[C@H](CCN1CCN(Cc2ccc(F)c(C)c2)CC1)C(=O)NO)c1ccc(F)cc1` [Compound 167960, (2S,4R)-2-(2-(4-(4-fluoro-3-methylbenzyl)piperazin-1-yl)ethyl)-4-(4-fluorophenyl)-N-hydroxy-4-methoxybutanamide] as the molecule, how does the Ki read?
**A.** 970 nM

**Q.** Which Ki does the source give for `CO[C@H](C[C@H](CCN1CCN(CC2CCCCC2)CC1)C(=O)NO)c1ccc(F)cc1` [Compound 167961, (2S,4R)-2-(2-(4-(cyclohexylmethyl)piperazin-1-yl)ethyl)-4-(4-fluorophenyl)-N-hydroxy-4-methoxybutanamide] here?
**A.** 1800 nM

**Q.** Which Ki does the source give for `CO[C@H](C[C@H](CCN1CCN(Cc2ccccc2)CC1)C(=O)NO)c1ccc(F)cc1` [Compound 167962, (2S,4R)-2-(2-(4-benzylpiperazin-1-yl)ethyl)-4-(4-fluorophenyl)-N-hydroxy-4-methoxybutanamide] here?
**A.** 1900 nM

**Q.** How did the Ki turn out when `CO[C@H](C[C@H](CCN1CCN(c2ccccc2)CC1)C(=O)NO)c1ccc(F)cc1` [Compound 167986, (2S,4R)-4-(4-fluorophenyl)-N-hydroxy-4-methoxy-2-(2-(4-phenylpiperazin-1-yl)ethyl)butanamide] was run?
**A.** 2220 nM

**Q.** With `CO[C@H](C[C@H](CCN1CCC(c2ccccc2)CC1)C(=O)NO)c1ccc(F)cc1` [Compound 167987, (2S,4R)-4-(4-fluorophenyl)-N-hydroxy-4-methoxy-2-(2-(4-phenylpiperidin-1-yl)ethyl)butanamide] as the molecule, how does the Ki read?
**A.** 760 nM

**Q.** With `CCN(CC)CC[C@@H](C[C@@H](OC)c1ccc(F)cc1)C(=O)NO` [Compound 167995, (2S,4R)-2-(2-(diethylamino)ethyl)-4-(4-fluorophenyl)-N-hydroxy-4-methoxybutanamide] as the molecule, how does the Ki read?
**A.** 2200 nM

**Q.** How did the Ki turn out when `CO[C@H](C[C@H](CCN(Cc1ccccc1)Cc1ccccc1)C(=O)NO)c1ccc(F)cc1` [Compound 167996, (2S,4R)-2-(2-(dibenzylamino)ethyl)-4-(4-fluorophenyl)-N-hydroxy-4-methoxybutanamide] was run?
**A.** 33400 nM

**Q.** `CO[C@H](C[C@H](CCN(C)c1cccc(Br)c1)C(=O)NO)c1ccc(F)cc1` [Compound 168000, (2S,4R)-2-(2-((3-bromophenyl)(methyl)amino)ethyl)-4-(4-fluorophenyl)-N-hydroxy-4-methoxybutanamide] was tested. Which Ki did it give?
**A.** 2800 nM

**Q.** How did the Ki turn out when `CO[C@H](C[C@H](CCN(C)Cc1cccc(Br)c1)C(=O)NO)c1ccc(F)cc1` [Compound 168001, (2S,4R)-2-(2-((3-bromobenzyl)(methyl)amino)ethyl)-4-(4-fluorophenyl)-N-hydroxy-4-methoxybutanamide] was run?
**A.** 1200 nM

**Q.** Which Ki does the source give for `CO[C@H](C[C@H](CCN(C)Cc1cccc(-c2ccc(F)c(C)c2)c1)C(=O)NO)c1ccc(F)cc1` [Compound 168003, (2S,4R)-2-(2-(((4′-fluoro-3′-methylbiphenyl-3-yl)methyl)(methyl)amino)ethyl)-4-(4-fluorophenyl)-N-hydroxy-4-methoxybutanamide] here?
**A.** 2300 nM

**Q.** How did the Ki turn out when `CO[C@H](C[C@H](CCN(C)c1cccc(-c2ccc(F)c(C)c2)c1)C(=O)NO)c1ccc(F)cc1` [Compound 168007, (2S,4R)-2-(2-((4′-fluoro-3′-methylbiphenyl-3-yl)(methyl)amino)ethyl)-4-(4-fluorophenyl)-N-hydroxy-4-methoxybutanamide] was run?
**A.** 19500 nM

**Q.** `CO[C@H](C[C@H](CCN(C)c1ccc(Br)cc1)C(=O)NO)c1ccc(F)cc1` [Compound 168013, (2S,4R)-2-(2-((4-bromophenyl)(methyl)amino)ethyl)-4-(4-fluorophenyl)-N-hydroxy-4-methoxybutanamide] was tested. Which Ki did it give?
**A.** 1800 nM

**Q.** Which Ki does the source give for `CO[C@H](C[C@H](CCN(C)Cc1ccc(Br)cc1)C(=O)NO)c1ccc(F)cc1` [Compound 168015] here?
**A.** 2200 nM

**Q.** With `CO[C@H](C[C@H](CCN(C)C/C=C/c1ccccc1)C(=O)NO)c1ccc(F)cc1` [Compound 168017, (2S,4R)-2-(2-(cinnamyl(methyl)amino)ethyl)-4-(4-fluorophenyl)-N-hydroxy-4-methoxybutanamide] as the molecule, how does the Ki read?
**A.** 520 nM

**Q.** Which Ki does the source give for `CO[C@H](C[C@H](CCN(C)c1ccccc1)C(=O)NO)c1ccc(F)cc1` [Compound 168028, (2S,4R)-4-(4-fluorophenyl)-N-hydroxy-4-methoxy-2-(2-(methyl(phenyl)amino)ethyl)butanamide] here?
**A.** 1820 nM

**Q.** With `CO[C@H](C[C@H](CCN(C)Cc1ccc(-c2ccc(F)c(C)c2)cc1)C(=O)NO)c1ccc(F)cc1` [Compound 168037, (2S,4R)-2-(2-(((4′-fluoro-3′-methylbiphenyl-4-yl)methyl)(methyl)amino)ethyl)-4-(4-fluorophenyl)-N-hydroxy-4-methoxybutanamide] as the molecule, how does the Ki read?
**A.** 680 nM

**Q.** How did the Ki turn out when `CO[C@H](C[C@H](CCN(C)c1ccc(-c2ccc(F)c(C)c2)cc1)C(=O)NO)c1ccc(F)cc1` [Compound 168038, (2S,4R)-2-(2-((4′-fluoro-3′-methylbiphenyl-4-yl)(methyl)amino)ethyl)-4-(4-fluorophenyl)-N-hydroxy-4-methoxybutanamide] was run?
**A.** 910 nM

**Q.** `CO[C@H](C[C@H](CCN1CCC[C@H](CO)C1)C(=O)NO)c1ccc(F)cc1` [Compound 168039, (2S,4R)-4-(4-fluorophenyl)-N-hydroxy-2-(2-((S)-3-(hydroxymethyl)piperidin-1-yl)ethyl)-4-methoxybutanamide] was tested. Which Ki did it give?
**A.** 580 nM
